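Tested at 5 concentrations; 48 h exposure; 96-well plates; endpoints linearly interpolated, else capped at highest concentration. GI50: concentration for 50% inhibition of growth.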 Active and inactive are the calls of the source. Rule as the data show it: active = GI50 up to about 1.1 µM and inactive = higher. Where only a bound is given, the exact number is not on record here.

Among the test systems are A498; A549; ACHN; BT-549; CCRF-CEM; COLO 205; HCT-116; IGROV-1; MDA-MB-231; MOLT-4; NCI-H522; PC-3; SF-268; SF-295; SF-539; SK-MEL-2; SK-OV-3; TK-10; U-251; UACC-62.
What all share (test): growth of human tumour cells (NCI), 48 h

`CN(C)C(C1=C(O)C(c2ccccc2)N(c2ccccc2)C1=O)N1CCOCC1` (stereo not given): the GI50 with A498, with A549, in the test on ACHN, in the test with BT-549, in the test on CCRF-CEM and in the test on COLO 205 was > 10 µM (inactive) throughout. For the same compound, the GI50 in the test with HCT-116, with IGROV-1, in the test with MDA-MB-231, with MOLT-4, in the test with NCI-H522 and with PC-3 was > 10 µM (inactive) each time. Further, the GI50 in the test on SF-268, in the test on SF-295, in the test on SF-539, with SK-MEL-2, with SK-OV-3 and in the test on TK-10 was > 10 µM (inactive) in each case. Also, the GI50 with U-251 and in the test with UACC-62 was > 10 µM (inactive) throughout.

On to `CCC(=O)NC(NNS(=O)(=O)c1ccc(C)cc1)(C(F)(F)F)C(F)(F)F`, for which the GI50 with A498 is > 100 µM (inactive); in the test with A549, 35.7 µM (inactive); in the test on ACHN it was 49.9 µM (inactive); in the test with BT-549 it was 29.7 µM (inactive); in the test on CCRF-CEM, 63.1 µM (inactive); in the test with COLO 205 it was > 100 µM (inactive). Besides, the GI50 was 64.3 µM (inactive) with HCT-116; 49.4 µM (inactive) with IGROV-1; 30.8 µM (inactive) in the test with MDA-MB-231; 80 µM (inactive) with MOLT-4; 30.7 µM (inactive) with NCI-H522; 55.1 µM (inactive) in the test on PC-3. Also, the GI50 is 55 µM (inactive) in the test with SF-268; > 100 µM (inactive) in the test on SF-295; 54 µM (inactive) with SF-539; > 100 µM (inactive) with SK-MEL-2; 64.3 µM (inactive) in the test on SK-OV-3; 54.1 µM (inactive) in the test on TK-10. In addition, the GI50 is > 10 µM (inactive) in the test with U-251 and 38.9 µM (inactive) in the test on UACC-62.

As for `CC(=O)OC/C=C/[C@H](O[Si](C)(C)C(C)(C)C)[C@@H](O)/C=C/COC(C)=O`, the GI50 with A498 was > 100 µM (inactive); with A549 it was > 100 µM (inactive); in the test with ACHN, > 100 µM (inactive); in the test on BT-549, > 100 µM (inactive); in the test with CCRF-CEM, 26 µM (inactive); in the test with COLO 205, > 100 µM (inactive). Moreover, the GI50 is > 100 µM (inactive) in the test with HCT-116; > 100 µM (inactive) in the test with IGROV-1; > 100 µM (inactive) with MDA-MB-231; 23.7 µM (inactive) in the test on MOLT-4; > 100 µM (inactive) with NCI-H522; > 100 µM (inactive) in the test with PC-3. Besides, the GI50 in the test on SF-268, in the test with SF-295, in the test with SF-539, with SK-MEL-2, with SK-OV-3 and in the test with TK-10 was > 100 µM (inactive) throughout. Also, the GI50 in the test with U-251 and with UACC-62 was > 100 µM (inactive) each time.

`Cc1cc2oc(C)c(S(=O)(=O)NC(=O)Nc3ccc(Cl)cc3)c(=O)c2c(=O)o1`: the GI50 is > 100 µM (inactive) in the test on A498; > 100 µM (inactive) in the test with A549; 59.4 µM (inactive) with ACHN; > 100 µM (inactive) in the test with BT-549; > 100 µM (inactive) in the test with CCRF-CEM; > 100 µM (inactive) with COLO 205. For the same compound, the GI50 in the test on HCT-116 is > 100 µM (inactive); in the test on IGROV-1 it was > 100 µM (inactive); in the test on MDA-MB-231, > 100 µM (inactive); in the test on MOLT-4, > 100 µM (inactive); with NCI-H522, > 100 µM (inactive); in the test with PC-3, 83.6 µM (inactive). Also, the GI50 in the test with SF-268, with SF-295, in the test on SF-539, in the test with SK-MEL-2, in the test on SK-OV-3 and in the test on TK-10 was > 100 µM (inactive) throughout. The figures for the GI50 with U-251 and in the test with UACC-62 were > 100 µM (inactive) and 30.9 µM (inactive), respectively.

On to `CC1=CC(=O)/C(=C/N2CCNC2=S)C(=O)O1`, for which the GI50 in the test on A498, in the test on A549, in the test on ACHN, in the test with BT-549, with CCRF-CEM and with COLO 205 was > 100 µM (inactive) throughout. In addition, the GI50 in the test with HCT-116, with IGROV-1, in the test on MDA-MB-231, with MOLT-4, in the test with NCI-H522 and in the test with PC-3 was > 100 µM (inactive) each time. Also, the GI50 in the test with SF-268, with SF-295, in the test with SF-539, with SK-MEL-2, with SK-OV-3 and with TK-10 was > 100 µM (inactive) each time. Also, the GI50 with U-251 and in the test with UACC-62 was > 100 µM (inactive) throughout.

Take `CC(=O)OC1(C)C=CC(=O)C=C1`: the GI50 was 31.6 µM (inactive) in the test with A498; > 100 µM (inactive) with A549; 17.5 µM (inactive) in the test with ACHN; 57.3 µM (inactive) in the test with BT-549; 44.1 µM (inactive) with CCRF-CEM; > 100 µM (inactive) in the test on COLO 205. The GI50 in the test with HCT-116 is 80.2 µM (inactive); in the test with IGROV-1, 12.9 µM (inactive); in the test with MDA-MB-231, 24.2 µM (inactive); in the test on MOLT-4, 30.3 µM (inactive); in the test with NCI-H522, 10.8 µM (inactive); in the test with PC-3 it was 27.4 µM (inactive). Moreover, the GI50 is 31 µM (inactive) in the test with SF-268; 37.2 µM (inactive) in the test with SF-295; 18.3 µM (inactive) with SF-539; 28.2 µM (inactive) in the test on SK-MEL-2; > 100 µM (inactive) in the test on SK-OV-3; 22.5 µM (inactive) in the test with TK-10. Besides, the results for the GI50 with U-251 and with UACC-62 were 13.3 µM (inactive) and 17.1 µM (inactive), respectively.

As to `CC1=NN(C(=O)c2ccccc2O)C(=O)/C1=C/c1c(O)ccc2ccccc12`, the GI50 with A498 is 2.44 µM (inactive); with A549, 2.06 µM (inactive); with ACHN it was 0.955 µM (active); with BT-549, 4.7 µM (inactive); in the test on CCRF-CEM, 0.312 µM (active); with COLO 205, 2.9 µM (inactive). Further, the GI50 is 0.689 µM (active) with HCT-116; 1.22 µM (inactive) in the test on IGROV-1; 3.97 µM (inactive) with MDA-MB-231; 1.8 µM (inactive) with MOLT-4; 0.839 µM (active) with NCI-H522; 2.03 µM (inactive) in the test with PC-3. The GI50 with SF-268 is 0.723 µM (active); with SF-295 it was 2.23 µM (inactive); in the test on SF-539, 0.804 µM (active); with SK-MEL-2, 1.14 µM (inactive); with SK-OV-3, 0.741 µM (active); with TK-10 it was 8.87 µM (inactive). The GI50 in the test with U-251 was 0.982 µM (active); in the test on UACC-62, 0.287 µM (active).

Turning to `O=P1(N(CCCl)CCCl)NCCCO1` (stereo not given) [CYCLOPHOSPHAMIDE ANHYDROUS], the GI50 was > 238 µM (inactive) in the test on A498; > 239 µM (inactive) in the test with A549; > 250 µM (inactive) in the test on ACHN; > 250 µM (inactive) in the test with BT-549; 200 µM (inactive) in the test on CCRF-CEM; > 250 µM (inactive) in the test on COLO 205. The GI50 is > 250 µM (inactive) in the test on HCT-116; > 216 µM (inactive) in the test on IGROV-1; > 250 µM (inactive) with MDA-MB-231; 249 µM (inactive) in the test with MOLT-4; > 250 µM (inactive) in the test with NCI-H522; > 250 µM (inactive) in the test with PC-3. Further, the GI50 is > 250 µM (inactive) in the test with SF-268; 169 µM (inactive) in the test on SF-295; > 250 µM (inactive) in the test on SF-539; > 238 µM (inactive) with SK-MEL-2; 248 µM (inactive) with SK-OV-3; > 250 µM (inactive) in the test with TK-10. Further, the GI50 in the test with U-251 and in the test with UACC-62 was > 250 µM (inactive) each time.

`COc1c(-c2ccc3c(c2)OCO3)oc2cc3c(c(OC)c2c1=O)OCO3` [MELITERNATIN]: the GI50 in the test on A498 is 23.5 µM (inactive); with A549 it was 20.2 µM (inactive); in the test on ACHN it was 22.3 µM (inactive); with BT-549 it was 12.8 µM (inactive); with CCRF-CEM it was 30.8 µM (inactive); in the test on COLO 205, 23.1 µM (inactive). Further, the GI50 in the test on HCT-116 was 16.2 µM (inactive); in the test on IGROV-1 it was 18.7 µM (inactive); with MDA-MB-231, 43 µM (inactive); in the test on MOLT-4, > 100 µM (inactive); in the test with NCI-H522 it was 21.5 µM (inactive); in the test with PC-3 it was 21.1 µM (inactive). In addition, the GI50 is 14.2 µM (inactive) in the test on SF-268; 22.6 µM (inactive) in the test with SF-295; 16.3 µM (inactive) in the test on SF-539; 19.6 µM (inactive) with SK-MEL-2; 18.3 µM (inactive) in the test with SK-OV-3; 25.5 µM (inactive) in the test with TK-10. Also, the GI50 with U-251 is 16.6 µM (inactive); in the test with UACC-62, 23.9 µM (inactive).

Regarding `Oc1c(Cl)c(Cl)c(Cl)c(Cl)c1Cl` [PENTACHLOROPHENOL], the GI50 with A498 was 19 µM (inactive); with A549 it was 23.1 µM (inactive); in the test with ACHN, 18.9 µM (inactive); in the test on BT-549, 25.6 µM (inactive); in the test with CCRF-CEM, 21.3 µM (inactive); with COLO 205, 31 µM (inactive). Further, the GI50 with HCT-116 is 17.4 µM (inactive); with IGROV-1, 18.8 µM (inactive); with MDA-MB-231, 13.3 µM (inactive); with MOLT-4 it was 20.6 µM (inactive); in the test with NCI-H522 it was 24 µM (inactive); in the test with PC-3 it was 18.9 µM (inactive). Besides, the GI50 with SF-268 was 31.1 µM (inactive); with SF-295, 17.2 µM (inactive); with SF-539, 21.5 µM (inactive); in the test on SK-MEL-2, 16 µM (inactive); in the test with SK-OV-3, 45.6 µM (inactive); with TK-10, > 100 µM (inactive). The results for the GI50 with U-251 and with UACC-62 were 16.1 µM (inactive) and 16.4 µM (inactive), respectively.

For the origin of these results see ChEMBL document CHEMBL1201862, “PubChem BioAssay data set” (2004).
